Results on one compound are retold here after US20190125715A1, “CDDO-Me AS A THERAPY FOR LUPUS” (priority 2014, published 2019).

The test system of one data set is B6.Sle1.Sle3 mice. In words: Preventive experiment in B6.Sle1.Sle3 mice: spleen weight, splenic cellularity and lymphocyte subsets by flow cytometry. Also noted: Splenic B cells: B220+, AA4.1+ (mature) / Splenic B cells: Follicular B cells / Splenic B cells: Marginal zone B cells / Splenic B cells: B1a cells / Splenic B cells: B220+, AA4.1+ (immature) / Splenic B cells: T1 immature / Splenic B cells: T2 immature / Splenic B cells: T3 immature / Splenic T cells: CD4 T cells / Splenic T cells: CD8 T cells: unit not given here. The data set is classed as in vivo, mouse. The procedure:
Flow cytometric analysis and antibodies: Splenocytes were depleted of red blood cells using a lysis buffer (containing 0.15M NH4Cl, 10 mM KHCO3, and 0.1 mM Na2EDTA, pH 7.2), and single-cell suspensions were prepared for flow cytometric analysis. Flow cytometric analysis was performed as described previously (17).
In vivo experiments: In the first preventive experiment, CDDO-Me was diluted in sesame oil. Two-month-old B6.Sle1.Sle3 mice (n=20) received CDDO-Me at a final dose of 3 mg/kg or vehicle alone (i.e., placebo), by oral gavage 3 times per week for a period of 2 months. In a confirmatory preventive study, 2-month-old MRL/lpr mice (n=8 per group) were orally administered CDDO-Me (3 mg/kg), sesame oil, water, or dexamethasone (1 mg/kg) 3 times a week for 2 months. Serum and 24-hour urine samples were obtained on days 0, 14, and 60. All serum samples were subjected to ELISA for autoantibodies, and urine samples were assayed for total protein as previously described (17,18). On day 60, when mice were killed, the cellular composition of the spleen and lymph nodes was determined by flow cytometry, and the kidneys were examined for pathology, as described below. In addition, the expression of various signaling molecules in the spleens and kidneys of the treated mice was assayed by Western blotting, as described above. In the treatment experiment, 7-month-old NZM2410 mice with proteinuria (n=4-7 per group) were treated with CDDO-Me (3 mg/kg) or placebo by oral gavage 5 times per week for a period of 2 months. Proteinuria, autoantibody production, spleen weight, and survival rates were assessed.
To address this, 2-month-old female B6.Sle1.Sle3 mice were treated for 60 days with CDDO-Me or placebo, and then spleen size and cellularity were assessed in both groups.

The conditions of data set [1]: mouse, in vivo. An excerpt:
Since this was a relatively long-term study, and since CDDO-Me cripples multiple signaling axes, one concern can be potential side effects. After 60 days of drug administration (either in the preventive or treatment experiment), body weights of mice from both the CDDO-Me group and the placebo group were similar. […] In addition, liver function was monitored by assaying aspartate aminotransferase (AST); however, there were no significant changes in the CDDO-Me-treated group (AST activity 75.7±6.5 units/liter) compared to the placebo group (74.0±5.8 units/liter).

Setting [2] is: absolute cell number in spleen, 4-month-old mice, 60 days treatment, mean ± SEM, n=10.

The structures appear in SMILES notation.

On to `COC(=O)[C@]12CCC(C)(C)C[C@H]1[C@H]1C(=O)C=C3[C@@]4(C)C=C(C#N)C(=O)C(C)(C)[C@@H]4CC[C@@]3(C)[C@]1(C)CC2` [CDDO-Me, methyl-2-cyano-3,12-dioxooleana-1,9-dien-28-oate], for which the “Total spleen cell count” value in the data set with B6.Sle1.Sle3 mice (4-month-old B6.Sle1.Sle3 mice after 60 days CDDO-Me 3 mg/kg oral gavage 3 times per week, mean ± SEM, n=10) is reported as 89.1 ± 2.3 10^6. Moreover, the “percentage of CD8+ T cells among splenic T cells” value with B6.Sle1.Sle3 mice (60 days treatment, mean±SEM, placebo 6.8±1.1%, P=0.023) was 9.73±0.4%. The “percentage of CD4+ T cells among splenic T cells” value with B6.Sle1.Sle3 mice (60 days treatment, mean±SEM, placebo 15.1±1.2%, P=0.021) was 12.1±0.35%. For the same compound, the “B cell activation, surface CD86 expression” value with B6.Sle1.Sle3 mice (60 days treatment, placebo 8.72±0.45, P<0.002) is reported as 6.48±0.42 mean fluorescence intensity units. The “absolute number of total splenic CD4+ T cells” value in the data set on B6.Sle1.Sle3 mice (60 days treatment, placebo 39.0±2.0 million, P<0.0001) came to 18.7±3.8 million. In addition, in the data set on B6.Sle1.Sle3 mice (setting [2]), the “Splenic B cells: B1a cells” value is given as 4.0 ± 0.3; the “Splenic B cells: B220+, AA4.1+ (immature)” value was found to be 10.4 ± 1.1; the “Splenic B cells: B220+, AA4.1+ (mature)” value is on record as 45.3 ± 3.2; the “Splenic B cells: Follicular B cells” value was determined as 30.9 ± 1.6. Also, in the data set on B6.Sle1.Sle3 mice (setting [2]), the “Splenic B cells: Marginal zone B cells” value stood at 4.0 ± 0.2, the “Splenic B cells: T1 immature” value is on record as 1.0 ± 0.1, the “Splenic B cells: T2 immature” value worked out at 3.1 ± 0.2 and the “Splenic B cells: T3 immature” value worked out at 4.0 ± 0.2. In the data set on B6.Sle1.Sle3 mice (setting [2]), the “Splenic T cells: CD4 T cells” value came out at 18.7 ± 3.8, the “Splenic T cells: CD8 T cells” value was 8.6 ± 2.4, the “Splenic T cells: CD69+/CD4 T cells” value is 5.1 ± 0.6 and the “Splenic T cells: CD69+/CD8 T cells” value is recorded as 0.6 ± 0.1. In addition, the “decrease of overall spleen weights compared to the placebo-treated group” value with B6.Sle1.Sle3 mice (female B6.Sle1.Sle3 mice treated for 60 days) is ~50%. In data set [1], the “AST activity (liver function)” value was 75.7±6.5 units/liter; the “all blood cell counts (WBC, RBC, hemoglobin, hematocrit, MCV, MCH, MCHC, RDW, MPV, neutrophils, lymphocytes, eosinophils) versus placebo group” value was “remained similar”; the “platelet counts versus placebo group” value is given as “comparable”.
